According to patent publication US20250179059A1 (The Regents of the University of California, priority 2021, published 2025):
Where a name gives a salt, the structure may show the parent alone.

The molecules below were run against T1, human BRD4 bromodomain II (Homo sapiens, UniProt O60885) (assay: Bromodomain binding assay (AlphaScreen), BRD4 BDII). Settings: AlphaScreen assay, Table C2; read-out: BRD4 BDII IC50.
T1 construct: human BRD4 bromodomain II [based on Genbank NM_058243, residues 349-460]; host or cells: E. coli
Summary of the method: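 First, His6-tagged BRD4 bromodomain (BDI residues 44-170 or BDII residues 349-460) is incubated with compound for 30 min at room temperature. Next the biotinylated H4 peptide is added for 30 min, then donor and acceptor beads, with 60 min in the dark before AlphaScreen reading and IC50 fitting.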
With `CC(=O)Nc1ccc(-c2cccc(-c3cccc(N4CC5(CNC5)C4)c3)c2O)cc1F` [Example 219, N-(3-fluoro-2′-hydroxy-3″-(2,6-diazaspiro[3.3]heptan-2-yl)-[1,1′:3′,1″-terphenyl]-4-yl)acetamide] the IC50 was 10 to 100 nM.
Work on `O=C1CCOc2cc(-c3cccc(-c4cc(N5CCNCC5)no4)c3O)ccc2N1` [Example 62, 8-(2-Hydroxy-3-(3-(piperazin-1-yl)isoxazol-5-yl)phenyl)-2,3-dihydrobenzo[b][1,4]oxazepin-4(5H)-one] yielded an IC50 greater than 100 nM.
Work on `CC(=O)Nc1ccc(-c2cccc(-c3cccc(N4CC5CCC4CN5)c3)c2O)cc1F` (centres unmarked) [Example 174, N-(3″-(2,5-diazabicyclo[2.2.2]octan-2-yl)-3-fluoro-2′-hydroxy-[1,1′:3′,1″-terphenyl]-4-yl)acetamide] yielded an IC50 of 10 to 100 nM.
`CC(=O)Nc1ccc(-c2cccc(-c3cccc(N4CC(CN)C4)c3)c2O)cc1F` [Example 220, N-(3″-(3-(aminomethyl)azetidin-1-yl)-3-fluoro-2′-hydroxy-[1,1′:3′,1″-terphenyl]-4-yl)acetamide] gave an IC50 of 10 to 100 nM.
Work on `CC(=O)Nc1ccc(-c2cccc(-c3ccc(NC(C)=O)c(OC4CCC4)c3)c2O)cc1F` [Example 45, N,N′-(3-Cyclobutoxy-3″-fluoro-2′-hydroxy-[1,1′:3′,1″-terphenyl]-4,4″-diyl)diacetamide] yielded an IC50 greater than 100 nM.
Work on `CC(=O)Nc1ccc(-c2cccc(-c3cc(N4CCN(C)CC4)no3)c2O)cc1F` [Example 150, N-(3-fluoro-2′-hydroxy-3′-(3-(4-methylpiperazin-1-yl)isoxazol-5-yl)-[1,1′-biphenyl]-4-yl)acetamide] yielded an IC50 of 10 to 100 nM.
In the case of `CC(=O)Nc1ccc(-c2cccc(-c3cnc(N4CCNCC4)o3)c2O)cc1F` [Example 112, N-(3-Fluoro-2′-hydroxy-3′-(2-(piperazin-1-yl)oxazol-5-yl)-[1,1′-biphenyl]-4-yl)acetamide], the IC50 is reported as 10 to 100 nM.
Molecule `CCc1cc(-c2cccc(-c3cc(N4CCNCC4)no3)c2O)ccc1NC(C)=O` [Example 22, N-(3-Ethyl-2′-hydroxy-3′-(3-(piperazin-1-yl)isoxazol-5-yl)-[1,1′-biphenyl]-4-yl)acetamide 2,2,2-trifluoroacetate] has an IC50 greater than 100 nM.
`CC(=O)Nc1ccc(-c2cccc(-c3ccc4[nH]cnc4c3)c2O)cc1F` [Example 131, N-(3′-(1H-Benzo[d]imidazol-5-yl)-3-fluoro-2′-hydroxy-[1,1′-biphenyl]-4-yl)acetamide] showed an IC50 of 10 to 100 nM.
With `COc1c(-c2ccc(NC(C)=O)cc2)cccc1-c1cc(N2CCN(C)CC2)no1` [Example 7] the IC50 was greater than 100 nM.
`COc1cc(-c2cccc(-c3ccc(N4CCCC4=O)c(F)c3)c2O)ccc1NC(C)=O` [Example 129, N-(3″-Fluoro-2′-hydroxy-3-methoxy-4″-(2-oxopyrrolidin-1-yl)-[1,1′:3′,1″-terphenyl]-4-yl)acetamide] gave an IC50 of 10 to 100 nM.
`CC(=O)Nc1ccc(-c2cccc(-c3cc(N4CCNCC4)no3)c2O)cc1OC(F)F` [Example 26, N-(3-(Difluoromethoxy)-2′-hydroxy-3′-(3-(piperazin-1-yl)isoxazol-5-yl)-[1,1′-biphenyl]-4-yl)acetamide 2,2,2-trifluoroacetate] was tested, and the IC50 was greater than 100 nM.
With `CC(=O)Nc1ccc(-c2cccc(-c3cc(N4CCNCC4)nc(N4CCNCC4)c3)c2O)cc1F` [Example 218, N-(3′-(2,6-di(piperazin-1-yl)pyridin-4-yl)-3-fluoro-2′-hydroxy-[1,1′-biphenyl]-4-yl)acetamide] the IC50 was 1 to 10 nM.
Molecule `CC(=O)Nc1ccc(-c2cccc(-c3ccc(NC(C)=O)c(OC(C)C)c3)c2O)cc1F` [Example 87, N,N′-(3-Fluoro-2′-hydroxy-3″-isopropoxy-[1,1′:3′,1″-terphenyl]-4,4″-diyl)diacetamide] has an IC50 greater than 100 nM.
`CC(=O)Nc1ccc(-c2cccc(-c3ccc4ocnc4c3)c2O)cc1F` [Example 122, N-(3′-(Benzo[d]oxazol-5-yl)-3-fluoro-2′-hydroxy-[1,1′-biphenyl]-4-yl)acetamide] gave an IC50 greater than 100 nM.
`CC(=O)Nc1ccc(-c2cccc(-c3ccc(NC(C)=O)cc3)c2O)cc1` [Example 11, N,N′-(2′-hydroxy-[1,1′:3′,1″-terphenyl]-4,4″-diyl)diacetamide] gave an IC50 greater than 100 nM.
For `COc1cc(-c2cccc(-c3ccc(NC(C)=O)c(F)c3)c2O)ccn1` [Example 97, N-(3-Fluoro-2′-hydroxy-3′-(2-methoxypyridin-4-yl)-[1,1′-biphenyl]-4-yl)acetamide], the IC50 was greater than 100 nM.
`O=C1CCCCN1c1ccc(-c2cccc(-c3cccc(N4CCNCC4)c3)c2O)cc1F` [Example 223, 1-(3-fluoro-2′-hydroxy-3″-(piperazin-1-yl)-[1,1′:3′,1″-terphenyl]-4-yl)piperidin-2-one] showed an IC50 of 10 to 100 nM.
With `CC(=O)Nc1ccc(-c2cccc(-c3cccc(N4CCC5(CCNCC5)CC4)c3)c2O)cc1F` [Example 195, N-(3-fluoro-2′-hydroxy-3″-(3.9-diazaspiro[5.5]undecan-3-yl)-[1,1′:3′,1″-terphenyl]-4-yl)acetamide] the IC50 was 10 to 100 nM.
For `CC(=O)Nc1ccc(-c2cccc(-c3ccc(N)nc3)c2O)cc1F` [Example 110, N-(3′-(6-Aminopyridin-3-yl)-3-fluoro-2′-hydroxy-[1,1′-biphenyl]-4-yl)acetamide], the IC50 was 10 to 100 nM.
`CC(=O)Nc1ccc(-c2cccc(-c3ccc(OC4CCC4)cc3)c2O)cc1F` [Example 117, N-(4″-Cyclobutoxy-3-fluoro-2′-hydroxy-[1,1′:3′,1″-terphenyl]-4-yl)acetamide] was tested, and the IC50 was greater than 100 nM.
For `CC(=O)Nc1ccc(-c2cccc(-c3cc(C)c(NC(C)=O)c(F)c3)c2O)cc1F` [Example 139, N,N′-(3,3″-difluoro-2′-hydroxy-5-methyl-[1,1′:3′,1″-terphenyl]-4,4″-diyl)diacetamide], the IC50 was greater than 100 nM.
`O=C(Nc1ccc(-c2cccc(-c3cc(N4CCNCC4)no3)c2O)cc1)C(F)(F)F` [Example 39, 2,2,2-Trifluoro-N-(2′-hydroxy-3′-(3-(piperazin-1-yl)isoxazol-5-yl)-[1,1′-biphenyl]-4-yl)acetamide 2,2,2-trifluoroacetate] showed an IC50 greater than 100 nM.
`CC(=O)Nc1ccc(-c2cccc(-c3cccc(OC4CCCC4)c3)c2O)cc1F` [Example 115, N-(3″-(Cyclopentyloxy)-3-fluoro-2′-hydroxy-[1,1′:3′,1″-terphenyl]-4-yl)acetamide] was tested, and the IC50 was greater than 100 nM.
`CC(=O)Nc1ccc(-c2cc(F)cc(-c3ccc(Cl)c(N4CCNCC4)c3)c2O)cc1F` [Example 242, N-(4″-chloro-3,5′-difluoro-2′-hydroxy-3″-(piperazin-1-yl)-[1,1″-terphenyl]-4-yl)acetamide] was tested, and the IC50 was 1 to 10 nM.
In the case of `CC(=O)Nc1ccc(-c2cccc(-c3cccc(N4C[C@H]5CC[C@@H](C4)N5)c3)c2O)cc1F` [Example 176, N-(3″-((1R,5S)-3,8-diazabicyclo[3.2.1]octan-3-yl)-3-fluoro-2′-hydroxy-[1,1′:3′,1″-terphenyl]-4-yl)acetamide], the IC50 is reported as 10 to 100 nM.
`CC(=O)Nc1ccc(-c2cccc(-c3cc(N4CCNCC4)no3)c2O)cc1F` [Example 34, N-(3-Fluoro-2′-hydroxy-3′-(3-(piperazin-1-yl)isoxazol-5-yl)-[1,1′-biphenyl]-4-yl)acetamide trifluoroacetate] showed an IC50 of 10 to 100 nM.
In the case of `COc1cc(-c2cccc(-c3cc(F)c(N4CCCC4=O)c(F)c3)c2O)ccc1NC(C)=O` [Example 133, N-(3″,5″-Difluoro-2′-hydroxy-3-methoxy-4″-(2-oxopyrrolidin-1-yl)-[1,1′:3′,1″-terphenyl]-4-yl)acetamide], the IC50 is reported as 10 to 100 nM.
Molecule `CC(=O)Nc1ccc(-c2cccc(-c3cc(N4CCNCC4)no3)c2O)cc1OC(C)C` [Example 20, N-(2′-Hydroxy-3-isopropoxy-3′-(3-(piperazin-1-yl)isoxazol-5-yl)-[1,1′-biphenyl]-4-yl)acetamide] has an IC50 of 10 to 100 nM.
`CC(=O)Nc1ccc(-c2cccc(-c3cncnc3)c2O)cc1F` [Example 103, N-(3-Fluoro-2′-hydroxy-3′-(pyrimidin-5-yl)-[1,1′-biphenyl]-4-yl)acetamide] showed an IC50 of 10 to 100 nM.
`CC(=O)Nc1ccc(-c2cccc(-c3ccc(Oc4ccccc4)cc3)c2O)cc1F` [Example 90, N-(3-Fluoro-2′-hydroxy-4″-phenoxy-[1,1′:3′,1″-terphenyl]-4-yl)acetamide] was tested, and the IC50 was greater than 100 nM.
`CC(=O)Nc1ccc(-c2cccc(-c3cc(N4CCNCC4)no3)c2O)cc1OC1CCCC1` [Example 89, N-(3-(Cyclopentyloxy)-2′-hydroxy-3′-(3-(piperazin-1-yl)isoxazol-5-yl)-[1,1′-biphenyl]-4-yl)acetamide 2,2,2-trifluoroacetate] was tested, and the IC50 was 10 to 100 nM.
Work on `CC(=O)Nc1ccc(-c2cccc(-c3cccc(N4CCC5(CCNC5)CC4)c3)c2O)cc1F` [Example 192, N-(3-fluoro-2′-hydroxy-3″-(2,8-diazaspiro[4.5]decan-8-yl)-[1,1′:3′,1″-terphenyl]-4-yl)acetamide] yielded an IC50 of 10 to 100 nM.
`CC(=O)Nc1c(F)cc(-c2cccc(-c3cccc(N4CCNCC4)c3)c2O)cc1OC1CC1` [Example 175, N-(3-cyclopropoxy-5-fluoro-2′-hydroxy-3″-(piperazin-1-yl)-[1,1′:3′,1″-terphenyl]-4-yl)acetamide] was tested, and the IC50 was 10 to 100 nM.
Molecule `O=C1CCCN1c1ccc(-c2cccc(-c3ccccc3)c2O)cc1F` [Example 188, 1-(3-fluoro-2′-hydroxy-[1,1′:3′,1″-terphenyl]-4-yl)pyrrolidin-2-one] has an IC50 greater than 100 nM.
For `CC(=O)Nc1ccc(-c2cccc(-c3ccc(F)cc3)c2O)cc1F` [Example 59, N-(3,4″-Difluoro-2′-hydroxy-[1,1′:3′,1″-terphenyl]-4-yl)acetamide], the IC50 was greater than 100 nM.
Work on `CC(=O)Nc1ccc(-c2cccc(-c3cccc(N4CC5CC4CN5)c3)c2O)cc1F` (centres unmarked) [Example 170, N-(3″-(2,5-diazabicyclo[2.2.1]heptan-2-yl)-3-fluoro-2′-hydroxy-[1,1:3′,1″-terphenyl]-4-yl)acetamide] yielded an IC50 of 10 to 100 nM.

Same assay, conditions: BRD4 BDII IC50, AlphaScreen assay, Table C2
Molecule `O=C(CF)Nc1ccc(-c2cccc(-c3cc(N4CCNCC4)no3)c2O)cc1` [Example 66, 2-Fluoro-N-(2′-hydroxy-3′-(3-(piperazin-1-yl)isoxazol-5-yl)-[1,1′-biphenyl]-4-yl)acetamide 2,2,2-trifluoroacetate] has an IC50 greater than 100 nM.
